Reference: patent publication EP0639971B1, “THERAPEUTIC COMBINATIONS” (priority 1992, dated 1993)

Columns and labels:
Format in all cases: cell-based
[1] = tested on: HIV; experiment: In vitro passage experiments: acquisition of resistance to oxathiolane nucleosides
[2] = tested on: zidovudine-resistant HIV strain (HIVRTMC) with M184 to V mutation; experiment: Antiviral sensitivity (IC50) of zidovudine-resistant HIV strain with M184 to V mutation introduced; settings: Human immunodeficiency virus 1
[3] = tested on: zidovudine-resistant HIV strain (HIVRTMC); experiment: Antiviral sensitivity (IC50) of zidovudine-resistant HIV strain; settings: Human immunodeficiency virus 1; HIVRTMC before introduction of mutation
[4] = tested on: zidovudine-resistant virus with Y181 to C, together with M184 to V; experiment: Antiviral sensitivity (IC50) of zidovudine-resistant HIV strain with Y181 to C and M184 to V mutations introduced
[5] = tested on: HIV-1 population containing four mutations in the HIV-RT which confer zidovudine resistance; experiment: Passage of zidovudine-resistant HIV-1 in cell culture with increasing concentrations of Chloro-TIBO; antiviral sensitivity (IC50)

Compound	acquisition of resistance by HIV [1]	IC50 [2] [nM]	IC50 [3] [nM]	sensitivity / resistance of the resulting mutant virus strain [4]	IC50 ([4]; Human immunodeficiency virus 1) [nM]	IC50 ([5]; Human immunodeficiency virus 1, after five passages with Chloro-TIBO) [nM]	IC50 ([5]; Human immunodeficiency virus 1, before passage with Chloro-TIBO) [nM]	increase of sensitivity of the virus population to zidovudine ([5]; after five passages with increasing concentrations of Chloro-TIBO)
Nc1ccn([C@H]2CS[C@@H](CO)O2)c(=O)n1 [3TC, (-)-2',3'-dideoxy-3'-thiacytidine]	rapid resistance							
Nc1nc(=O)n([C@@H]2CS[C@H](CO)O2)cc1F [FTC, (-)-2'3'-dideoxy-5-fluoro-3'-thiacytidine]	rapid resistance	> 500000	640					
Cc1cn([C@H]2C[C@H](N=[N+]=[N-])[C@@H](CO)O2)c(=O)[nH]c1=O [zidovudine, 3'-azido-3'-deoxythymidine]		170	1260	completely sensitive	40	< 100	~2000	about twenty fold
